Values quoted from earlier work as cited in PMC11949389 (Polish Journal of Microbiology, 2025).
≈ marks a conversion by molar mass, not a printed value. Where two headings read alike, the source gives them in different places.

Experiments:
Enterococcus sp. = details: ref Caballero Gómez et al. 2022
Acinetobacter baumannii [1] = details: combined with ciprofloxacin, ref Aleksic Sabo et al. (2021)
Candida tropicalis = details: with voriconazole, C. tropicalis isolates; ref Sharifzadeh and Shokri (2021)
[2] = test system: Mupirocin-resistant Staphylococcus aureus; details: ref Kwiatkowski et al. 2019
Vibrio harveyi = details: ref Rossi et al. 2021
[3] = test system: Carbapenem-resistant Klebsiella pneumoniae (CRKP); details: ref Qian et al. 2020
Candida glabrata = details: Candida glabrata; ref Sharifzadeh et al. 2019; Iraji et al. 2020; Biernasiuk et al. 2022; Stringaro et al. 2022
Candida auris [4] = details: Candida auris; ref Shaban et al. 2020
Staphylococcus sp. = details: ref Caballero Gómez et al. 2022
[5] = test system: Mupirocin-susceptible Staphylococcus aureus; details: ref Kwiatkowski et al. 2019
[6] = test system: Vibrio anguillarum, and Vibrio harveyi; details: ref Rossi et al. (2021)
[7] = test system: Singapore grouper iridovirus (SGIV); details: ref Wang et al. (2024)
Acinetobacter baumannii [8] = details: ref Choudhary et al. 2022
Streptococcus mutans = details: ref Jafri et al. (2019)
Candida auris [9] = details: ref Shaban et al. 2020
Staphylococcus aureus [10] = test system: Staphylococcus aureus
[11] = test system: carbapenem-resistant Klebsiella pneumoniae (CRKP) strains; details: CRKP; ref Qian et al. 2020
Candida albicans [12] = details: ref Shaban et al. 2020
Pseudomonas sp. = details: ref Caballero Gómez et al. 2022
Candida albicans [13] = test system: Candida albicans
Vibrio anguillarum = details: ref Rossi et al. 2021
[14] = test system: Methicillin-resistant Staphylococcus aureus; details: for Mechanisms of action: Methicillin-resistant Staphylococcus aureus
Staphylococcus aureus [15] = test system: Staphylococcus aureus; remark: listed apart in the source

SMILES: C=CCc1ccc(O)c(OC)c1 [Eugenol]
- MIC/Sensitivity (Enterococcus sp.): 200 to 450 µg/mL
- FICI (Acinetobacter baumannii [1]): 0.25–0.32
- FICI (Candida tropicalis): 0.25–0.88
- MIC/Sensitivity [2]: 8340 µg/mL (≈ 50.8 mM)
- MIC/Sensitivity (Vibrio harveyi): 308696 µg/mL (≈ 1880 mM)
- Mechanisms of action [3]: • Disruption of cell membrane • Reduction in intracellular pH and ATP levels • Cell membrane hyperpolarization • Downregulation of biofilm-related genes (pgaA, luxS, wbbM, wzm) • Upregulation of mrkA gene
- MIC/Sensitivity (Candida glabrata): 1000 to 2000 µg/mL
- MIC/Sensitivity (Candida auris [4]): 625 µg/mL (≈ 3.81 mM)
- MIC/Sensitivity (Staphylococcus sp.): 300 to 400 µg/mL
- MIC/Sensitivity [5]: 2080 µg/mL (≈ 12.7 mM)
- MIC [6]: 940 to 7500 µM
- optimal concentration for inhibiting infection [7]: 100 µM
- Mechanisms of action (Acinetobacter baumannii [8]): • Reduction in exopolysaccharide production • Disruption and inhibition of biofilm • Downregulation of csuE gene
- planktonic MIC (Streptococcus mutans): 200 µg/mL
- MIC/Sensitivity (Candida krusei; Candida krusei, ref Sharifzadeh et al. 2019, Iraji et al. 2020, Biernasiuk et al. 2022, Stringaro et al. 2022): 250 to 1000 µg/mL
- FICI (Candida krusei; with voriconazole, C. krusei isolates, ref Sharifzadeh and Shokri (2021)): 0.19–0.63
- Mechanisms of action (Candida auris [9]): • Reduced proteinase production and host cell adherence
- MIC (Staphylococcus aureus [10]; S. aureus, ref Sharma et al. (2023)): 500–1,000 μg/ml
- MIC/Sensitivity (Staphylococcus aureus [10]; Staphylococcus aureus, ref Kwiatkowski et al. 2020, Sayout et al. 2020, Sousa Silveira et al. 2020, Macêdo et al. 2022, Noumi et al. 2023, Sharma et al. 2023): 24 to 11100 µg/mL
- MIC [11]: 200 µg/mL (≈ 1.22 mM)
- Mechanisms of action (Candida albicans [12]): • Reduced proteinase production
- MIC/Sensitivity (Pseudomonas sp.): 300 to 400 µg/mL
- planktonic MIC (Candida albicans [13]; C. albicans, ref Jafri et al. (2019)): 200 µg/mL
- MIC/Sensitivity (Candida albicans [13]; Candida albicans, ref Sharifzadeh et al. 2019, Iraji et al. 2020, Shaban et al. 2020, Stringaro et al. 2022, Biernasiuk et al. 2022): 500 to 2000 µg/mL
- MIC/Sensitivity (Vibrio anguillarum): 308696 µg/mL (≈ 1880 mM)
- biofilm eradication ([14]; MIC or 2 × MIC concentrations, established MRSA biofilms, ref El-Far et al. (2021)): effectively eradicated established MRSA biofilms
- Mechanisms of action ([14]; ref Buru et al. 2022): • Downregulation of luxS gene • Inhibition of biofilm production • Enhancement of secondary metabolites • Upregulation of argC protein
- Mechanisms of action ([14]; ref El-Far et al. 2021): • Downregulation of biofilm-related genes (sarA, icaA, icaD) • Reduction of polysaccharide accumulation and cell adhesion
- Mechanisms of action (Staphylococcus aureus [15]; ref Macêdo et al. 2022): • Inhibition of efflux pump
- Mechanisms of action (Staphylococcus aureus [15]; ref Mastoor et al. 2022): • Gene expression reduction linked to intracellular adhesion
- Mechanisms of action (Staphylococcus aureus [15]; ref Muniz et al. 2021): • Inhibition of norA efflux pump
